Data taken from paper PMC11823609, “Advancements in the fight against globally distributed OXA-48 carbapenemase: evaluating the new generation of carbapenemase inhibitors” (Antimicrobial Agents and Chemotherapy, 2025).
Values after ≈ are worked out from the molar mass of the structure shown. Where two headings read alike, the source gives them in different places.

Key:
E. coli TG1 (OXA-48) = experiment: microbe, parasite or virus in culture; assay type: cell-based, Escherichia coli; conditions: Escherichia coli
Method: (§1) The MICs of each of the individual compounds (antibiotics or inhibitors) were also determined. The MICs were determined for the E. coli isogenic expressing OXA-48 (and both OXA-48 and CTX-M-14) to assess their activity against the carbapenemase; MICs were also determined for the 18 Enterobacterales clinical isolates in order to evaluate the new inhibitors against also their resistance concomitant mechanisms. The MICs were determined in triplicate experiments, and the EUCAST 13.0 clinical breakpoints were followed (http://www.eucast.org/clinical_breakpoints).
(§2) For comparative evaluation of the activity of each inhibitor alone against the carbapenemase OXA-48, all inhibitors (at 4 mg/L) were tested in the presence of a carbapenem (ertapenem, adequate substrate) and a cephalosporin (ceftazidime, poor substrate) as reporter substrates. This prevented any possible masking effect produced by the different partner antibiotics. These assays were also performed with isogenic transformants and clinical isolates.

[1] = system: OXA-48-producing Enterobacterales clinical isolates; experiment: MIC summary over clinical isolates; assay type: cell-based
Method: (§3) The efficacy of these new BLIs was also evaluated against 18 genetically diverse WGS-characterized collection of OXA-48-positive Enterobacterales recovered as part of the Carbapenem-resistant Enterobacterales Genome Database Project (https://genomes.cnag.cat/incredble) listed in Table S2 ([13]). Combinations of clinical isolates (five pairs of Klebsiella pneumoniae, two pairs of Enterobacter cloacae, and two pairs of E. coli) were chosen for analysis: (i) nine strains carrying ESBLs; and (ii) nine strains (genetically closer available strains) without ESBLs.
as §1, §2

[2] = system: E. coli TG1 and HB4 transformants; experiment: MIC summary over E. coli transformants; assay type: cell-based, Escherichia coli
From the text: (§4) The E. coli HB4 strain was used to gain a more complete perspective, by evaluating the involvement in resistance of a low permeability background with the carbapenemase OXA-48, as well as coproduction of an ESBL and the carbapenemase; thus, the ESBL CTX-M-14 and OXA-48 were cloned together and separately into E. coli HB4. The characteristics of these strains and transformants are summarized in Table S1, and the cloning procedures are outlined in the supplemental methods.
as §1, §2

E. coli HB4 ΔompC/F = experiment: microbe, parasite or virus in culture; assay type: cell-based, Escherichia coli; conditions: Escherichia coli
From the text: as §4, §1, §2

[3] = system: E. coli HB4 ΔompC/F (CTX-M-14 + OXA-48); experiment: microbe, parasite or virus in culture; assay type: cell-based, Escherichia coli; conditions: Escherichia coli
From the text: as §4, §1, §2

[4] = system: E. coli HB4 ΔompC/F (CTX-M-14); experiment: microbe, parasite or virus in culture; assay type: cell-based, Escherichia coli; conditions: Escherichia coli
From the text: as §4, §1, §2

[5] = system: E. coli HB4 ΔompC/F (OXA-48); experiment: microbe, parasite or virus in culture; assay type: cell-based, Escherichia coli; conditions: Escherichia coli
From the text: as §4, §1, §2

E. coli TG1 = experiment: microbe, parasite or virus in culture; assay type: cell-based; conditions: Escherichia coli
Method: as §1, §2

[6] = system: K. pneumoniae strain 23 (MLST 392, ESBL); experiment: microbe, parasite or virus in culture; assay type: cell-based; conditions: Klebsiella pneumoniae
Method: as §3, §1, §2

[7] = system: K. pneumoniae strain 413 (MLST 147, ESBL); experiment: microbe, parasite or virus in culture; assay type: cell-based; conditions: Klebsiella pneumoniae
Method: as §3, §1, §2

[8] = system: E. cloacae strain 235 (MLST 171, ESBL); experiment: microbe, parasite or virus in culture; assay type: cell-based; conditions: Enterobacter cloacae
Method: as §3, §1, §2

[9] = system: E. cloacae strain 272 (MLST 78, ESBL); experiment: microbe, parasite or virus in culture; assay type: cell-based; conditions: Enterobacter cloacae
Method: as §3, §1, §2

[10] = system: E. coli strain 264 (MLST 131, No ESBL); experiment: microbe, parasite or virus in culture; assay type: cell-based; conditions: Escherichia coli, E. coli 264, read-out: MIC
Method: as §3, §1, §2

[11] = system: E. coli strain 224 (MLST 127, No ESBL); experiment: microbe, parasite or virus in culture; assay type: cell-based; conditions: Escherichia coli, E. coli 224, read-out: MIC
Method: as §3, §1, §2

[12] = system: K. pneumoniae strain 71 (MLST 15, No ESBL); experiment: microbe, parasite or virus in culture; assay type: cell-based; conditions: Klebsiella pneumoniae, K. pneumoniae 71, read-out: MIC
Method: as §3, §1, §2

[13] = system: K. pneumoniae strain 237 (MLST 147, No ESBL); experiment: microbe, parasite or virus in culture; assay type: cell-based; conditions: Klebsiella pneumoniae, K. pneumoniae 237, read-out: MIC
Method: as §3, §1, §2

[14] = system: K. pneumoniae strain 19 (MLST 11, ESBL); experiment: microbe, parasite or virus in culture; assay type: cell-based; conditions: Klebsiella pneumoniae
Method: as §3, §1, §2

[15] = system: K. pneumoniae strain 194 (MLST 392, No ESBL); experiment: microbe, parasite or virus in culture; assay type: cell-based; conditions: Klebsiella pneumoniae, K. pneumoniae 194, read-out: MIC
Method: as §3, §1, §2

[16] = system: K. pneumoniae strain 238 (MLST 15, ESBL); experiment: microbe, parasite or virus in culture; assay type: cell-based; conditions: Klebsiella pneumoniae
Method: as §3, §1, §2

[17] = system: E. cloacae strain 281 (MLST 78, No ESBL); experiment: microbe, parasite or virus in culture; assay type: cell-based; conditions: Enterobacter cloacae, E. cloacae 281, read-out: MIC
Method: as §3, §1, §2

[18] = system: K. pneumoniae strain 125 (MLST 307, ESBL); experiment: microbe, parasite or virus in culture; assay type: cell-based; conditions: Klebsiella pneumoniae
Method: as §3, §1, §2

[19] = system: E. coli strain 177 (MLST 131, ESBL); experiment: microbe, parasite or virus in culture; assay type: cell-based; conditions: Escherichia coli
Method: as §3, §1, §2

[20] = system: E. cloacae strain 231 (MLST 171, No ESBL); experiment: microbe, parasite or virus in culture; assay type: cell-based; conditions: Enterobacter cloacae, E. cloacae 231, read-out: MIC
Method: as §3, §1, §2

[21] = system: K. pneumoniae strain 170 (MLST 307, No ESBL); experiment: microbe, parasite or virus in culture; assay type: cell-based; conditions: Klebsiella pneumoniae, K. pneumoniae 170, read-out: MIC
Method: as §3, §1, §2

[22] = system: K. pneumoniae strain 497 (MLST 11, No ESBL); experiment: microbe, parasite or virus in culture; assay type: cell-based; conditions: Klebsiella pneumoniae, K. pneumoniae 497, read-out: MIC
Method: as §3, §1, §2

[23] = system: E. coli strain 103 (MLST 10, ESBL); experiment: microbe, parasite or virus in culture; assay type: cell-based; conditions: Escherichia coli
Method: as §3, §1, §2

[24] = system: O=C(Cc1cccs1)N[C@@H]1C(=O)N2C(C(=O)O)=C(/C=C/c3ccc([N+](=O)[O-])cc3[N+](=O)[O-])CS[C@H]12; experiment: purified protein, by the assay type; conditions: other: substrate hydrolysis by OXA-48; pH 7.4; 25.0 °C
[25] = BL alone or BL/BLI: AVI, REL, TAN, DUR 4 mg/L, VAB, XER 8 mg/L, ZID, NAC 1:1

## O=C(NNC(=O)[C@@H]1CC[C@@H]2CN1C(=O)N2OS(=O)(=O)O)[C@@H]1CCCNC1 [Zidebactam, zidebactam]
E. coli TG1 (OXA-48)
  MIC: 0.12 µg/mL (≈ 0.307 µM)
[1]; clinical isolates
  reduction of cefepime MICs by BLI: 2–512 fold
[2]; OXA-48-producing E. coli hosts, BLI 4 mg/L
  effect of ertapenem/BLI on bacterial growth: totally inhibited bacterial growth
[2]; TG1 and HB4 E. coli
  MICs of inhibitor alone (range over strains): 0.12 to 2 mg/L
E. coli HB4 ΔompC/F
  MIC: 0.5 µg/mL (≈ 1.28 µM)
[3]
  MIC: 0.5 µg/mL (≈ 1.28 µM)
[4]
  MIC: 0.5 µg/mL (≈ 1.28 µM)
[5]
  MIC: 0.5 µg/mL (≈ 1.28 µM)
E. coli TG1; β-lactamase inhibitor alone
  MIC: 0.12 µg/mL (≈ 0.307 µM)
[6]
  MIC: 0.5 µg/mL
[7]
  MIC: ≥ 128 µg/mL
[8]
  MIC: 2 µg/mL
[9]
  MIC: 0.5 µg/mL
[10]; β-lactamase inhibitor alone
  MIC: 0.12 µg/mL
[11]; β-lactamase inhibitor alone
  MIC: 0.25 µg/mL
[12]; β-lactamase inhibitor alone
  MIC: 0.5 µg/mL
[13]; β-lactamase inhibitor alone
  MIC: 0.5 µg/mL
[14]
  MIC: ≥ 128 µg/mL
[15]; β-lactamase inhibitor alone
  MIC: 0.5 µg/mL
[16]
  MIC: 0.25 µg/mL
[17]; β-lactamase inhibitor alone
  MIC: 0.25 µg/mL
[18]
  MIC: ≥ 128 µg/mL
[19]
  MIC: 0.5 µg/mL
[20]; β-lactamase inhibitor alone
  MIC: 0.25 µg/mL
[21]; β-lactamase inhibitor alone
  MIC: 0.5 µg/mL
[22]; β-lactamase inhibitor alone
  MIC: 32 µg/mL
[23]
  MIC: 8 µg/mL

## OXA-48 (Klebsiella pneumoniae)
[24]
  Km: 56.5 µM
  kcat: 171.4 s⁻¹
  kcat/Km: 3.05e+06 M⁻¹ s⁻¹

## CC1(C)[C@H](C(=O)O)N2C(=O)C[C@H]2S1(=O)=O [SUL, sulbactam]
E. coli TG1 (OXA-48)
  MIC: 32 µg/mL (≈ 137 µM)
[1]
  MIC: ≥ 64 µg/mL
E. coli HB4 ΔompC/F
  MIC: 32 µg/mL (≈ 137 µM)
[3]
  MIC: 64 µg/mL (≈ 274 µM)
[4]
  MIC: 32 µg/mL (≈ 137 µM)
[5]
  MIC: 64 µg/mL (≈ 274 µM)
E. coli TG1; [25]
  MIC: 32 µg/mL (≈ 137 µM)
[6]
  MIC: 128 µg/mL
[7]
  MIC: 128 µg/mL
[8]
  MIC: ≥ 256 µg/mL
[9]
  MIC: 128 µg/mL
[10]; [25]
  MIC: 64 µg/mL
[11]; [25]
  MIC: 128 µg/mL
[12]; [25]
  MIC: 128 µg/mL
[13]; [25]
  MIC: 64 µg/mL
[14]
  MIC: 64 µg/mL
[15]; [25]
  MIC: 64 µg/mL
[16]
  MIC: 128 µg/mL
[17]; [25]
  MIC: 128 µg/mL
[18]
  MIC: 64 µg/mL
[19]
  MIC: 64 µg/mL
[20]; [25]
  MIC: 64 µg/mL
[21]; [25]
  MIC: 64 µg/mL
[22]; [25]
  MIC: 128 µg/mL
[23]
  MIC: 64 µg/mL

## C[C@@H](O)[C@H]1C(=O)N2C(C(=O)O)=C(S[C@@H]3CN[C@H](C(=O)N(C)C)C3)[C@H](C)[C@H]12 [MER, meropenem]
E. coli TG1 (OXA-48)
  MIC: ≤ 0.06 µg/mL
E. coli HB4 ΔompC/F
  MIC: 0.12 µg/mL (≈ 0.313 µM)
[3]
  MIC: 32 µg/mL (≈ 83.4 µM)
[4]
  MIC: 0.5 µg/mL (≈ 1.3 µM)
[5]
  MIC: 32 µg/mL (≈ 83.4 µM)
E. coli TG1; [25]
  MIC: ≤ 0.06 µg/mL
[6]
  MIC: 1 µg/mL
[7]
  MIC: 16 µg/mL
[8]
  MIC: 128 µg/mL
[9]
  MIC: 1 µg/mL
[10]; [25]
  MIC: 1 µg/mL
[11]; [25]
  MIC: 0.5 µg/mL
[12]; [25]
  MIC: 2 µg/mL
[13]; [25]
  MIC: 1 µg/mL
[14]
  MIC: 1 µg/mL
[15]; [25]
  MIC: 2 µg/mL
[16]
  MIC: 1 µg/mL
[17]; [25]
  MIC: 1 µg/mL
[18]
  MIC: 2 µg/mL
[19]
  MIC: 0.5 µg/mL
[20]; [25]
  MIC: 1 µg/mL
[21]; [25]
  MIC: 1 µg/mL
[22]; [25]
  MIC: 1 µg/mL
[23]
  MIC: 0.25 µg/mL
